Results from patent publication US11092602B2, “Methods and compositions relating to proteasome inhibitor resistance” (Whitehead Institute for Biomedical Research, priority 2015, dated 2021).
“Also recorded” adds a separate entry of the source. Residues, ends and D or L forms follow the SMILES beside them. *: point of attachment. Cbz = O=C(OCc1ccccc1)*

What was measured:
IMR32 and Kelly cells [1] = experiment: CellTiter-Glo viability of IMR32 and Kelly neuroblastoma cells; format: cell-based; conditions: 72 hours
T47D cells [2] = experiment: CellTiter-Glo viability of PSMD2 KD versus control T47D cells with BCL2 family inhibitors; format: cell-based, human
Description: Cell viability was measured by CellTiter-Glo® Luminescent Cell Viability Assay 72 hours after addition of the compounds to cells.

IMR32 and Kelly cells [3] = experiment: CellTiter-Glo viability of IMR32 and Kelly neuroblastoma cells; format: cell-based; conditions: 72 hours; remark: listed apart in the source
Description: IMR32 and Kelly cells were each cultured in the presence of bortezomib at concentrations ranging from 0.001 um to 0.100 um. […] The fold viability relative to culture in the absence of bortezomib was determined for each cell line.
The fold viability relative to culture in the absence of the compound was determined for each cell line.

T47D cells [4] = experiment: Selleck anti-cancer compound library screen, PSMD2 KD versus control T47D cells (resazurin); format: cell-based, human; conditions: 4 concentrations, 72 hours
Description: After 48 hours the cells were collected, counted, and plated at 1000 cells/well in 384 well plates in duplicates for each cell line. Compounds from the Selleck Chemicals anti-cancer compound library β49 drugs in 4 concentrations; […]) were pinned the next day and viability was measured after 72 hours by the reduction of Resazurin (Ex=530 nm, Em=590 nm).
The effect of each drug on viability of cells was calculated by averaging the duplicate experiments. The data is plotted in FIG. 16 as the log2 of the ratio of viability of PSMD2 KD versus control cells (log2 (shPSMD2/Control)).

T47D cells [5] = experiment: Cell viability of T47D cells with doxycycline-inducible PSMD2 shRNA; format: cell-based, human; conditions: for resistance of cells harboring the PSMD2 shRNA versus parental line (EC50): doxycycline 3 days, 96 hour culture
Description: T47D cells harboring a doxycycline inducible control shRNA (GFP) or a doxycycline-inducible PSMD2 shRNA (TurboRFP) were incubated with doxycycline for 3 days. Cells were then split and grown in the absence of Dox and proteasome inhibitors were then added at various concentrations. Cells were maintained in culture and then counted.
For the generation of the T47D Tet-inducible PSMD2 knockdown cell line—the TRIPZ vector with an inducible shRNA targeting PSMD2 was purchased from Dharmacon (clone V3THS_403760). It was introduced to the T47D cells according to manufactures protocol and cells were selected with puromycin 1 μg/ml for one week. The cells were exposed to doxycycline for 24 hours and cells were FACS sorted for the top 10% of most RFP expressing cells (highest expression of shRNA). The cells were further cultured in the absence of doxycycline and PSMD2 knockdown was induced as specified in the relevant Examples.
Relative cell growth and survival were measured in 96-well microplate format in the shRNA experiments and in 384 well format in the drug toxicity assays, by using the fluorescent detection of resazurin dye reduction as an endpoint (544 nm excitation and 590 nm emission). 2,500 cells in 96 wells format or 1,000 cells in 384 well format were plated 24 hours before compound exposure (for 72 hours or indicated time). Each analysis was performed at least with three replicas.

Saccharomyces cerevisiae = experiment: Yeast DAmP strains MG132 sensitivity assay; format: cell-based; conditions: 50 μM MG132, 48 hours
Excerpt: Additionally, because the essential role of the proteasome in maintaining protein homeostasis is conserved across all eukaryotes (Hilt and Wolf, 1995), we asked whether reducing expression of 19S subunits confers resistance to proteasome inhibitors in an evolutionary distant organism—the yeast Saccharomyces cerevisiae. As the 19S regulatory complex components are essential for viability in yeast, we utilized a library of hypomorphic (DAmP) alleles for essential yeast genes. In this library, the expression of individual mRNA species is reduced from two to ten-fold by replacing the mRNA's 3′ untranslated region (Breslow et al., 2008).
Yeast cells were grown over night in media containing L-proline as nitrogen source instead of ammonium sulfate. […] OD was measured over the period of 48 hours.

T47D cells [6] = experiment: Competition co-culture of shPSMD2-RFP and shControl-GFP T47D cells, FACS and microscopy; format: cell-based, human; conditions: 1:10 plating ratio; concentration-dependent
Description: We created two cell lines—one line that expresses red fluorescent protein (turboRFP) and the doxycycline-inducible PSMD2-targeting shRNA and another line that expresses green fluorescent protein (GFP) and a doxycycline-inducible control shRNA (FIG. 6A). First, we induced shRNA expression with doxycycline for 48 hours. After recovery, we mixed shPSMD2-RFP and shControl-GFP cells at different ratios (either 1:1, 1:2, 1:5 or 1:10), adding the cells with reduced PSMD2 as the minority subpopulation. Twenty-four hours after plating, we treated these mixed populations of cells for 48 hours with increasing concentrations of bortezomib (5, 7.5 or 10 nM). We allowed the cells to recover in the absence of bortezomib and then we quantified the red and green cells by FACS analysis (FIG. 6A) and captured representative images by fluorescence microscopy (FIG. 6B).
The experiment described in Example 10 was repeated with minor differences using a panel of different proteasome inhibitors: MLN2238, MLN9708, and oprozomib T47D cells harboring a doxycycline inducible control shRNA (GFP) or a doxycycline-inducible PSMD2 shRNA (TurboRFP) were incubated with doxycycline for 3 days. Cells were collected, counted, and plated at a 1:10 ratio of TurboRFP-expressing PSMD2 shRNA cells/GFP expression control shRNA cells in the absence of Dox. Proteasome inhibitors were added at the specified concentrations and cells were maintained in culture. Cells were allowed to recover in the absence of the proteasome inhibitor and then analyzed by FACS (FIG. 8B, top) or visualized by microscopy (FIG. 8B, bottom). In the absence of proteasome inhibitors, the initial plating ratio of these cells (1:10) was maintained over the duration of the experiment (FIG. 8B). […] The effect was concentration-dependent in that higher concentrations elicited more substantial shifts.
cells were trypsinized in 100 μL Accumax® solution and further diluted into 100 μl PBSx1. The number of cells with red or green fluorescent proteins was measured by MACSQuant® VYB according to manufactures protocol. Images of RFP and GFP were created by overlaying images using Fiji software.

| Compound | sensitivity of IMR32 cells versus Kelly cells (IMR32 and Kelly cells [3]) | selective effect on viability, PSMD2 KD versus control cells (log2 (shPSMD2/Control)) (T47D cells [4]) | shift of surviving cell populations towards PSMD2 shRNA cells (T47D cells [6]) | resistance of cells harboring the PSMD2 shRNA versus parental line (EC50) (T47D cells [5]) | also measured |
| --- | --- | --- | --- | --- | --- |
| CC1(C)CCC(c2ccc(Cl)cc2)=C(CN2CCN(c3ccc(C(=O)NS(=O)(=O)c4ccc(N[C@H](CCN5CCOCC5)CSc5ccccc5)c(S(=O)(=O)C(F)(F)F)c4)cc3)CC2)C1 [ABT-263, navitoclax] | dramatically more sensitive; also recorded: significantly more sensitive | selectively inhibits growth of T47D cancer cells that have a reduced level of PSMD2; also recorded: selectively reduce the viability of PSMD2 KD cells versus control cells | – | – | preferential sensitivity of IMR32 versus Kelly cells, compared between BCL2 family inhibitors (IMR32 and Kelly cells [1]): much greater; sensitivity after reintroduction of the PSMD5 subunit (IMR32 and Kelly cells [1]; IMR32 cells): did not significantly alter; sensitivity of PSMD2 KD cells versus control cells (T47D cells [2]; 72 hours): more sensitive; sensitization by suppression of 19S subunit PSMD2 (T47D cells [2]; doxycycline-induced): not sufficient, however, to induce a profound sensitization |
| COc1ccc(-c2ccc3c(N4CCOCC4)nc(N4C[C@@H](C)O[C@@H](C)C4)nc3n2)cc1CO [Ku-0063794] | – | selectively inhibit growth of T47D cancer cells that have a reduced level of PSMD2; also recorded: selectively reduce the viability of PSMD2 KD cells versus control cells | – | – | – |
| CC(C)C[C@@H](C=O)NC(=O)[C@H](CC(C)C)NC(=O)[C@H](CC(C)C)NC(=O)OCc1ccccc1 [MG132, N-(benzyloxycarbonyl)leucinylleucinylleucinal] (Cbz-Leu-Leu-Leu-aldehyde) | – | – | – | – | resistance upon doxycycline-induced reduction of PSMD2 (T47D cells [5]; PSMD2 shRNA versus control): significantly increased resistance; resistance of 19S subunit DAmP strains to proteasome inhibition (Saccharomyces cerevisiae): five of these twelve strains had significantly increased resistance |
| CC(C)C[C@H](NC(=O)CNC(=O)c1cc(Cl)ccc1Cl)B(O)O [MLN2238, ixazomib] | – | selectively reduce viability of control cells versus PSMD2 KD cells | substantially shifted the populations of surviving cells | – | – |
| CC(C)C[C@H](NC(=O)[C@H](CCc1ccccc1)NC(=O)CN1CCOCC1)C(=O)N[C@@H](Cc1ccccc1)C(=O)N[C@@H](CC(C)C)C(=O)[C@@]1(C)CO1 [carfilzomib] | – | – | – | considerably more resistant | – |
| Nc1nc(Cl)nc2c1ncn2[C@H]1C[C@H](O)[C@@H](CO)O1 [cladribine, 2-chlorodeoxyadenosine] | – | selectively inhibit growth of T47D cancer cells that have a reduced level of PSMD2; also recorded: selectively reduce the viability of PSMD2 KD cells versus control cells | – | – | – |
| CCN(CC)C(=S)SSC(=S)N(CC)CC [disulfiram, tetraethylthiuram disulfide] | dramatically more sensitive | selectively inhibit growth of T47D cancer cells that have a reduced level of PSMD2; also recorded: selectively reduce the viability of PSMD2 KD cells versus control cells | – | – | – |
| CN(NC(=O)CC(=O)NN(C)C(=S)c1ccccc1)C(=S)c1ccccc1 [elesclomol] | dramatically more sensitive | selectively inhibit growth of T47D cancer cells that have a reduced level of PSMD2; also recorded: selectively reduce the viability of PSMD2 KD cells versus control cells | – | – | – |
| COC[C@H](NC(=O)c1cnc(C)s1)C(=O)N[C@@H](COC)C(=O)N[C@@H](Cc1ccccc1)C(=O)[C@@]1(C)CO1 [oprozomib] | – | – | substantially shifted the populations of surviving cells | considerably more resistant | – |
| ixazomib citrate [MLN9708] | – | selectively reduce viability of control cells versus PSMD2 KD cells | substantially shifted the populations of surviving cells | considerably more resistant | – |
